Data taken from ChEMBL document CHEMBL5550219, “Distinct Amino Acid-Based PROTACs Target Oncogenic Kinases for Degradation in Non-Small Cell Lung Cancer (NSCLC)” (J Med Chem, 2024).
The source made the active and inactive calls. No cut-off for these calls is given here.

Columns and labels:
SK-N-BE(2) = assay: Effect on wild-type ALK in human SK-N-BE(2) cells upto 20 uM incubated for 48 hrs by immunoblot analysis; format: functional, cell-based
[1] = Half life in mouse at 2 mg/kg, iv measured for 12 hrs by HPLC analysis; format: ADME, organism-based; settings: in vivo
NCI-H1975 [2] = assay: Induction of cell cycle arrest at G1 phase in human NCI-H1975 cells at 20 uM incubated for 72 hrs by flow cytometry (reference value: 44.5 +/- 1.5 %); format: functional
[3] = Tmax in mouse at 50 mg/kg, ip measured for 12 hrs by HPLC analysis; format: ADME, organism-based; settings: in vivo
NCI-H1975 [4] = assay: Induction of apoptosis in human NCI-H1975 cells assessed as increase in late apoptotic cells incubated for 72 hrs by Annexin V-FITC/PI staining based flow cytometry; format: functional, cell-based; settings: dose 10-20 µM
NCI-H3122 [5] = assay: Inhibition of cell viability in human NCI-H3122 cells incubated for 48 to 72 hrs by CCK8 assay
A549 = assay: Effect on wild-type EGFR expression in human A549 cells upto 20 uM incubated for 72 hrs by immunoblot analysis; format: functional, cell-based
NCI-H3122 [6] = assay: Induction of cell cycle arrest at S phase in human NCI-H3122 cells at 5 uM incubated for 48 hrs by flow cytometry (reference value: 25.7 +/- 0.4 %); format: functional
NCI-H3122 [7] = assay: Induction of apoptosis in human NCI-H3122 cells assessed as increase in early apoptotic cells incubated for 48 hrs by Annexin V-FITC/PI staining based flow cytometry; format: functional, cell-based; settings: dose 5-10 µM
PC-9 = assay: Effect on EGFR del19 mutant expression in human PC-9 cells upto 20 uM incubated for 72 hrs by immunoblot analysis; format: functional, cell-based
NCI-H1975 [8] = assay: Inhibition of cell viability in human NCI-H1975 cells harboring sgGID4 incubated for 72 hrs by CCK8 assay; format: functional, cell-based
NCI-H1975 [9] = assay: Inhibition of cell viability in human NCI-H1975 cells incubated for 48 to 72 hrs by CCK8 assay
SH-SY5Y = assay: Effect on ALK F1174L mutant in human SH-SY5Y cells upto 20 uM incubated for 48 hrs by immunoblot analysis; format: functional, cell-based
NCI-H1975 [10] = assay: Induction of cell cycle arrest at S phase in human NCI-H1975 cells at 10 uM incubated for 72 hrs by flow cytometry (reference value: 12.1 +/- 0.7 %); format: functional
NCI-H1299 = assay: Effect on wild-type EGFR expression in human NCI-H1299 cells upto 20 uM incubated for 72 hrs by immunoblot analysis; format: functional, cell-based
[11] = Cmax in mouse at 50 mg/kg, ip measured for 12 hrs by HPLC analysis; format: ADME, organism-based; settings: in vivo
NCI-H3122 [12] = assay: Induction of cell cycle arrest at S phase in human NCI-H3122 cells at 10 uM incubated for 48 hrs by flow cytometry (reference value: 25.7 +/- 0.4 %); format: functional
NCI-H1975 [13] = assay: Induction of cell cycle arrest at G2 phase in human NCI-H1975 cells at 20 uM incubated for 72 hrs by flow cytometry (reference value: 43.4 +/- 1.5 %); format: functional
HEK-293T = assay: Inhibition of cell viability in HEK293T cells upto 20 uM incubated for 48 hrs by CCK8 assay; format: toxicity, cell-based; settings: human
NCI-H1975 [14] = assay: Induction of cell cycle arrest at S phase in human NCI-H1975 cells at 20 uM incubated for 72 hrs by flow cytometry (reference value: 12.1 +/- 0.7 %); format: functional
[15] = […] measured for 12 hrs by HPLC analysis; format: ADME, organism-based; settings: in vivo
NCI-H3122 [16] = assay: Induction of cell cycle arrest at G1 phase in human NCI-H3122 cells at 5 uM incubated for 48 hrs by flow cytometry (reference value: 64.9 +/- 0.6 %); format: functional
[17] = Tmax in mouse at 2 mg/kg, iv measured for 12 hrs by HPLC analysis; format: ADME, organism-based; settings: in vivo
NCI-H3122 [18] = assay: Induction of cell cycle arrest at G2 phase in human NCI-H3122 cells at 5 uM incubated for 48 hrs by flow cytometry (reference value: 9.4 +/- 0.5 %); format: functional
[19] = Cmax in mouse at 2 mg/kg, iv measured for 12 hrs by HPLC analysis; format: ADME, organism-based; settings: in vivo
NCI-H1975 [20] = assay: Induction of apoptosis in human NCI-H1975 cells assessed as increase in early apoptotic cells incubated for 72 hrs by Annexin V-FITC/PI staining based flow cytometry; format: functional, cell-based; settings: dose 10-20 µM
NCI-H1975 [21] = assay: Induction of cell cycle arrest at G2 phase in human NCI-H1975 cells at 10 uM incubated for 72 hrs by flow cytometry (reference value: 43.4 +/- 1.5 %); format: functional
NCI-H3122 [22] = assay: Inhibition of cell viability in human NCI-H3122 cells harboring sgGID4 incubated for 48 hrs by CCK8 assay; format: functional, cell-based
NCI-H3122 [23] = assay: Induction of cell cycle arrest at G1 phase in human NCI-H3122 cells at 10 uM incubated for 48 hrs by flow cytometry (reference value: 64.9 +/- 0.6 %); format: functional
NCI-H1975 [24] = assay: Induction of cell cycle arrest at G1 phase in human NCI-H1975 cells at 10 uM incubated for 72 hrs by flow cytometry (reference value: 44.5 +/- 1.5 %); format: functional
NCI-H3122 [25] = assay: Induction of cell cycle arrest at G2 phase in human NCI-H3122 cells at 10 uM incubated for 48 hrs by flow cytometry (reference value: 9.4 +/- 0.5 %); format: functional
NCI-H3122 [26] = assay: Induction of apoptosis in human NCI-H3122 cells assessed as increase in late apoptotic cells incubated for 48 hrs by Annexin V-FITC/PI staining based flow cytometry; format: functional, cell-based; settings: dose 5-10 µM
[27] = AUC (0 to t) in mouse at 50 mg/kg, ip measured for 12 hrs by HPLC analysis; format: ADME, organism-based; settings: in vivo
[28] = AUC (0 to t) in mouse at 2 mg/kg, iv measured for 12 hrs by HPLC analysis; format: ADME, organism-based; settings: in vivo
[29] = Half life in mouse at 50 mg/kg, ip measured for 12 hrs by HPLC analysis; format: ADME, organism-based; settings: in vivo

## COc1cc(N2CCN(C(=O)CCOCCOCCOCCNC(=O)[C@@H]3CCCN3)CC2)ccc1Nc1ncc(Cl)c(Nc2ccccc2P(C)(C)=O)n1
SK-N-BE(2)
  Activity: inactive
[1]
  half-life: 2.87 h
NCI-H1975 [2]
  Activity: 78.4%
[3]
  Tmax: 0.5 h
NCI-H1975 [4]
  Activity: Dose-Dependent Effect
NCI-H3122 [5]
  IC50: 0.16 µM
A549
  Activity: inactive
NCI-H3122 [6]
  Activity: 7.3%
NCI-H3122 [7]
  Activity: Dose-Dependent Effect
PC-9
  Activity: inactive
NCI-H1975 [8]
  inhibition: inactive
NCI-H1975 [9]
  IC50: 8.8 µM
SH-SY5Y
  Activity: inactive
NCI-H1975 [10]
  Activity: 10.2%
NCI-H1299
  Activity: inactive
[11]
  Cmax: 33000 ng/mL
NCI-H3122 [12]
  Activity: 3.9%
NCI-H1975 [13]
  Activity: 15.9%
HEK-293T
  Activity: Non-Toxic
NCI-H1975 [14]
  Activity: 5.7%
[15]
  bioavailability: 53.2%
NCI-H3122 [16]
  Activity: 84.2%
[17]
  Tmax: 4.98 min
NCI-H3122 [18]
  Activity: 8.1%
[19]
  Cmax: 3720 ng/mL
NCI-H1975 [20]
  Activity: Dose-Dependent Effect
NCI-H1975 [21]
  Activity: 32.5%
NCI-H3122 [22]
  inhibition: inactive
NCI-H3122 [23]
  Activity: 90.4%
NCI-H1975 [24]
  Activity: 57.3%
NCI-H3122 [25]
  Activity: 5.5%
NCI-H3122 [26]
  Activity: Dose-Dependent Effect
[27]
  AUC(0-t) at 12 h: 80800 ng·h/mL
[28]
  AUC(0-t) at 12 h: 6080 ng·h/mL
[29]
  half-life: 5.18 h
